According to patent US10894777B2, “TG2 inhibitor piperazine compounds and uses thereof” (UNIVERSITY OF OTTAWA, priority 2016, dated 2021):

Experiments:
TG2 = target: T1, TG2 (Homo sapiens, UniProt P21980); assay: In situ TG2 transamidase activity (FC incorporation), HaCaT cells; type: cell-based; set-up: endogenous in cells
T1 sequence (P21980 1-687): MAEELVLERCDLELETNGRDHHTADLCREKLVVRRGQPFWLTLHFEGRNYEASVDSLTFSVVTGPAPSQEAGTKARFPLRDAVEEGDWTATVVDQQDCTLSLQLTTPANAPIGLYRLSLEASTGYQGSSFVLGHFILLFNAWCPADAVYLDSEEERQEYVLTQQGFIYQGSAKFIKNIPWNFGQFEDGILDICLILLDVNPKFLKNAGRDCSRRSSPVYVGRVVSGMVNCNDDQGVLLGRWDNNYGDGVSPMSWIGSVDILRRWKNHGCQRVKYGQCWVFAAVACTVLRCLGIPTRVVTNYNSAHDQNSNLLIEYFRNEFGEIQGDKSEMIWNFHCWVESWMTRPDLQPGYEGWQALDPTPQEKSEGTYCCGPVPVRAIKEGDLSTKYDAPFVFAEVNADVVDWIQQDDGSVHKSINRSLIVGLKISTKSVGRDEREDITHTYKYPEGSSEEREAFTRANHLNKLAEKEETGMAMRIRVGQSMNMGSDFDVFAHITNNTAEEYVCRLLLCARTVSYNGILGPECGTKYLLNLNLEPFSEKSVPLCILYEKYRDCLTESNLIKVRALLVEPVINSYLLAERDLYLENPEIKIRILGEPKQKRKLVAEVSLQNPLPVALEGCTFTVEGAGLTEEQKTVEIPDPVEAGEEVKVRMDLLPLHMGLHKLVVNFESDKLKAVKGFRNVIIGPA
Experimental: (§1) HaCaT cells were electroporated with mCer-TG2 or mCer-TG2-YAP and then treated with 0 or 5 μM of the indicated inhibitor and fluorescent lifetime was monitored. […] HaCaT cells were preloaded with fluorescein cadaverine, treated with the indicated inhibitor and then challenged with calcium ionophore, washed and assayed for FC incorporation. […] HaCaT were incubated for 48 h with the indicated inhibitor and extracts were prepared and incubated with GTP-agarose beads to measure TG2 binding to GTP agarose. The beads were then washed, boiled in Laemmli buffer and electrophoresed for immunoblot detection of TG2. Cell equivalent quantities of total and bound samples were electrophoresed to facilitate comparison of GTP bound versus total. […] Experiments were performed as described in FIGS. 31 (F) and (G).
In situ TG2 transamidase activity assay. Cells (40,000) were plated in 24-well attachment dishes in spheroid media and grown until 50% confluent. FC was added in 2 ml of serum-free medium at a final concentration of 20 μM and incubated for 4 h. […] After 30 min, the wells were supplemented with 10 NM A23187, a calcium ionophore.

endogenous TG2 = target: T2, endogenous TG2 (Homo sapiens, UniProt P21980); assay: TG2 GTP-agarose pull-down assay, HaCaT cells; type: cell-based; conditions: 48 h
T2 construct: endogenous in cells; host or cells: HaCaT
T2 sequence (P21980 1-687): T1 sequence (P21980 1-687)
Experimental: as §1

[1] = system: TG2 fusion protein mCer-TG2-YFP; assay: Fluorescence lifetime imaging (FLIM) of mCer-TG2-YFP conformation, SCC-13 cells; type: cell-based, human; conditions: NC9, VA4, VA5 0-20 μM 24 or 48 h; Cp4d 0-10 μM 48 h
Experimental: We monitored the impact of each inhibitor on intracellular TG2 structure using FLIM (Fluorescence Lifetime Imaging Microscopy). FLIM is a quantitative method of assessing fluorescence lifetime that measures energy transfer between donor and accept probes Fluorescence lifetime is measured in nanoseconds and a short lifetime correlates with close contact between probes (FIG. 29B). An advantage of this method is that fluorescent lifetimes are independent of probe concentration. In the present experiments, we expressed in cells a TG2 fusion protein in which the donor probe (mCER) is fused to the N-terminus and the acceptor probe (YFP) at the C-terminus (FIG. 29B). mCER and YFP comprise an ideal donor/acceptor pair; the donor probe is excited by laser illumination and energy transfer to the acceptor is monitored. The fluorescent lifetime is shorter when TG2 is in the closed conformation which brings mCER and YFP close together. SCC-13 cells were electroporated with empty vector, mCER-TG2 or mCER-TG2-YFP.
Fluorescence lifetime imaging. Fluorescence lifetime images were acquired using FLIM system (Alba 5 from ISS). […] Emission was observed through bandpass filter 480/35 nm (Chroma Technology) and detected by a photomultiplier H7422-40 (Hamamatsu). FLIM data were acquired using time-domain modality (SPC-830 TCSPC module from Becker and Hickl GmbH). […] To account for intensity heterogeneity within single intensity images, two to five consecutive scans were acquired and summed to build FLIM intensity image for lifetime analysis. […] FLIM data were analyzed using VistaVision Suite software (Vista v.213 from ISS). Lifetime images were generated by fitting data using single exponential intensity decay model. Intensity threshold for lifetime analysis was set of at least 3-fold above the intensity of dim cells and fitting procedure was performed for binned pixels at level of 3 (7×7 pixels). Lifetime distribution within image is represented with histogram showing pixel frequency of specific lifetime. The average lifetime values with standard deviations were calculated based on all processed pixels in lifetime image. FRET values were calculated according to the formula ET=1−(τDA/τD), where τD is the lifetime of donor (mCer-TG2) and τDA is the lifetime of donor-acceptor pair (mCer-TG2—YFP).

Row | SMILES | TG2 transamidase activity (FC incorporation) (TG2) | TG2 GTP binding (endogenous TG2) | fluorescence lifetime of mCer-TG2-YFP [1]
1 | C=CC(=O)NCCCC[C@H](NC(=O)OCc1ccccc1)C(=O)N1CCN(C(=O)c2cc3ccc(O)cc3oc2=O)CC1 [VA5, (S)-Benzyl(6-acrylamido-1-(4-(7-hydroxy-2-oxo-2H-chromene-3-carbonyl)piperazin-1-yl)-1-oxohexan-2-yl)carbamate] | suppressed TG2 transamidase activity | reduced TG2 GTP binding | markedly increased
2 | C=CC(=O)NCCCC[C@H](NC(=O)OCc1ccccc1)C(=O)NCCOCCOCCNS(=O)(=O)c1cccc2c(N(C)C)cccc12 [NC9] | suppressed TG2 transamidase activity | reduced TG2 GTP binding | markedly increased
3 | C=CC(=O)NCCCC[C@H](NC(=O)OCc1ccccc1)C(=O)N1CCN(S(=O)(=O)c2cccc3c(N(C)C)cccc23)CC1 [VA4, (S)-benzyl(6-acrylamido-1-(4-((5-(dimethylamino)naphthalen-1-yl)sulfonyl)piperazin-1-yl)-1-oxohexan-2-yl)carbamate] | suppressed TG2 transamidase activity | reduced TG2 GTP binding | markedly increased
